In US20260185979A1, “APPARATUSES AND METHODS FOR ANALYZING LIVE CELLS” (AGILENT TECHNOLOGIES, INC., priority 2022, published 2026):
“Also recorded” adds a separate entry of the source.

Experiments:
MCF-7-red target cells = test: ECM invasion and cytotoxicity assay: NK-92 cells over matrigel layered on MCF-7-red cells (impedance and live cell imaging, xCELLigence RTCA eSight); format: cell-based, human; settings: for killing of target cells by NK-92 (drop in impedance): MMP inhibitor 2 μM and 10 μM in matrigel and media
Description: An exemplary protocol is described as follows. Briefly, varying volumes of matrigel (50-110 microliters (μL)/well; 6 milligrams (mg)/millilter (mL)) representing increasing distance for invasion is layered over MCF-7 (available from American Type Culture Collection (ATCC)) human breast adenocarcinoma cells stably expressing nuclear-localized red fluorescent protein (MCF-7). NK-92 cells (available from Creative Bioarray, ATCC) are added over the solidified matrigel layer at E:T of 3:1. eLive Green (available from Agilent Technologies, shown in green) is added at 1 μL/mL. A broad spectrum MMP inhibitor (such as GM6001, available from Selleck Chemicals) is used to evaluate the role of matrix metalloproteinases (MMPs).
The ability of NK-92 cells to invade the matrigel and kill the MCF-7-red target cells was evaluated by concurrent impedance and imaging readouts on an XCELLIGENCE RTCA ESIGHT® imaging and sensing system (available from Agilent Tech., Inc.). Background impedance signal was measured with 50 μL of EMEM media in the wells of E-plate VIEW microplate (available from Agilent Technologies, Cat#0030060101030). MCF-7-red target cells (30,000 in 100 μL) were added to each well. The plate was placed at room temperature for thiry minutes to facilitate an even distribution of cells at the bottom. […] Impedance readings were collected every fifteen minutes, and photos were taken every sixty minutes. Images from four fields of view were acquired in each well in brightfield, red, and green fluorescence channels. […] Percent cytolysis was calculated from normalized cell impedance readings at seventy-two hours using the formula: [(1−(treated/untreated)*100]. […]
The ability of NK-92 cells to invade the matrigel and kill the MCF7-red target cells was evaluated by concurrent impedance and imaging readouts on an XCELLIGENCE RTCA ESIGHT® imaging and sensing system as outlined in FIG. 6A. Background impedance signal was measured with 50 μL of EMEM media in the wells of E-plate VIEW microplate. […]

NK-92 invasion = settings: transmigration assays; cited from earlier work
A431-red target cells = test: ECM invasion and cytotoxicity assay: EpCAM-CAR-T cells over matrigel layered on A431-red cells (impedance and imaging); format: cell-based, human; settings: for percent cytolysis (CAR-T killing): matrigel
Description: (§1) Briefly, matrigel (6 mg/ml) was layered (50 μL/ell) over A431-red target tumor cells expressing nuclear-localized mKate2 (red fluorescent protein). After 2 h, epithelial cell adhesion molecule (EpCAM)-CAR-T cells were seeded over the matrigel layer. Tumor cell growth and CAR-T cytotoxicity were determined from real-time impedance and live cell imaging data collected on the XCELLIGENCE RTCA ESIGHT® imaging and sensing system. Pemigatinib (1 μM, 5 μM and 10 μM), an inhibitor of FGFR isoforms 1-3, sold under the brand name Pemazyre was used to evaluate the role of FGFR signaling. Percent cytolysis was calculated from normalized cell impedance and imaging (red fluorescence) data using the formula [(1−(treated/control)*100].
(§2) The ability of EpCAM-CAR-T cells to invade the matrigel and kill A431-red target cells was evaluated using impedance and imaging readouts on an XCELLIGENCE RTCA ESIGHT® imaging and sensing system. The background impedance signal was measured with 50 μL of c-DMEM media in the wells of E-plate VIEW microplate (Agilent Technologies, Cat#0030060101030). Cell suspension of A 431-red cells was prepared in c-DMEM at desired cell numbers to be aliquot at 100 μL/well. After the addition of tumor cells, the E-plate was allowed to rest at room temperature for 30 min to facilitate an even distribution at the bottom. […] Impedance was read every 15 minutes and images were taken every 60 minutes. Images from four fields of view were acquired for each well in brightfield and red fluorescence channel. […]
(§3) The software generates a real-time plot of impedance data with time (X-axis) and Cell Index (CI, Y-axis). […] Normalized Cell Index (NCI(t)) was calculated by dividing the CI at time t (CI(t)) with CI at normalization time point (CI(tnormalization)). […] Percent cytolysis was calculated from NCI (impedance) using the formula [(1−(CAR-T treated/Pemigatinib treated)*100]. Percent cytolysis was calculated from red object counts/well (imaging) using the formula [(1−(CAR-T treated/Pemigatinib treated)*100].

A431 cells [1] = test: A431 cell proliferation, normalized cell index over time; format: cell-based, human
Description: as §1
as §2, with “μL/well.” for “μL/well. After the addition of tumor cells, the E-plate was allowed to rest at room temperature for 30 min to facilitate an even distribution at the bottom.”

A431 cells [2] = test: EpCAM-CAR-T cytotoxicity assay, A431 cells cultured in DMEM media (no matrigel); format: cell-based, human; settings: Pemigatinib 5 μM and 10 μM, E:T 3.5, DMEM media
Description: as §1, with “[…] […]” for “Briefly, matrigel (6 mg/ml) was layered (50 μL/ell) over A431-red target tumor cells expressing nuclear-localized mKate2 (red fluorescent protein). After 2 h, epithelial cell adhesion molecule (EpCAM)-CAR-T cells were seeded over the matrigel layer.”
[…] The background impedance signal was measured with 50 μL of c-DMEM media in the wells of E-plate VIEW microplate (Agilent Technologies, Cat#0030060101030). […] Impedance was read every 15 minutes and images were taken every 60 minutes. Images from four fields of view were acquired for each well in brightfield and red fluorescence channel. […]
as §3

Structure (SMILES): CNC(=O)[C@H](Cc1c[nH]c2ccccc12)NC(=O)[C@@H](CC(=O)NO)CC(C)C [GM6001, Ilomostat]
- target cell killing by GFP-NK92 cells (percent cytolysis from normalized impedance and red fluorescence imaging) (MCF-7-red target cells; 2 μM and 10 μM): delayed and reduced target cell killing
- killing of target cells by NK-92 (drop in impedance) (MCF-7-red target cells): delayed but not abrogated
- killing of target cells by NK-92 (drop in impedance) (MCF-7-red target cells; listed as Ilomostat): delayed the killing of target cells
- NK-92 invasion in matrigel in the presence of MMP inhibitor (NK-92 invasion): reduced

Structure (SMILES): CCN1C(=O)N(c2c(F)c(OC)cc(OC)c2F)Cc2cnc3[nH]c(CN4CCOCC4)cc3c21 [Pemigatinib]
- percent cytolysis (CAR-T killing) (A431-red target cells; 5 μM Pemigatinib with EpCAM-CAR-T): ~20%
- percent cytolysis (CAR-T killing) (A431-red target cells; 10 μM Pemigatinib with EpCAM-CAR-T): −40%
- elimination of A431 cells in invasion assays (A431-red target cells; E:T=20:1 and 1 μM Pemigatinib): Complete elimination
- proliferation of A431 cells (normalized cell index) (A431 cells [1]; in the presence of matrigel, 1, 5 and 10 μM tested): reduces the proliferation of A431 cells in the presence of matrigel in a concentration-dependent manner; also recorded: reduced the proliferation of A431 cells with increasing concentrations tested
- proliferation of A431 cells (normalized cell index) (A431 cells [1]; native DMEM media, no matrigel): slows the proliferation of A431 cells in native DMEM media in a concentration dependent manner
- A431 cytolysis by EpCAM-CAR-T cells in the presence of Pemigatinib (A431 cells [2]): accelerated
